Experimental findings from ChEMBL document CHEMBL2057197, “Synthesis and evaluation of water-soluble resveratrol and piceatannol via BGLation” (Bioorg Med Chem Lett, 2012) are described below.

The structures appear in SMILES notation. Active and inactive are the calls of the source. The rule behind the calls is not given here.

Test [1] has as its system 3T3-L1. The test is described as follows: Induction of mitochondrial fusion in mouse 3T3L1 cells at 10 to 50 uM after 48 hrs by green Fm-staining. It is filed as functional, cell-based.
Test [2] deals with 3T3-L1. Put plainly: Reduction in triglyceride level in mouse 3T3L1 cells at 10 to 50 uM after 48 hrs. It is filed as functional, cell-based.

With `OCC(CO)OCC(COC(CO)CO)n1cc(COc2cc(O)cc(/C=C/c3ccc4c(c3)OCO4)c2)nn1`, the outcome in the test with 3T3-L1 [1] was Active. Further, the outcome in the test on 3T3-L1 [2] was inactive.
For the molecule `OCC(CO)OCC(COC(CO)CO)n1cc(COc2cc(O)cc(/C=C/c3ccc(O)c(O)c3)c2)nn1`, the result in the test on 3T3-L1 [1] and in the test on 3T3-L1 [2] was Active.
Consider `Oc1cc(O)cc(/C=C/c2ccc(O)c(O)c2)c1`, for which the result in the test with 3T3-L1 [1] and with 3T3-L1 [2] was Active.
With `COc1ccc(/C=C/c2cc(O)cc(OCc3cn(C(COC(CO)CO)COC(CO)CO)nn3)c2)cc1`, the outcome with 3T3-L1 [1] and in the test with 3T3-L1 [2] was inactive.
Regarding `OCC(CO)OCC(COC(CO)CO)n1cc(COc2cc(O)cc(/C=C/c3ccc(O)cc3)c2)nn1`, the outcome with 3T3-L1 [1] and with 3T3-L1 [2] was inactive.
